For the assay, the target named is human Nav1.8 (Homo sapiens, UniProt Q9Y5Y9). Nature of the assay: SyncroPatch384PE assay (automated patch clamp). To be noted: human Nav1.8/b3 CHO cells. Format: cell-based. The method, then: Compounds were tested on recombinant human Nav1.8/b3 stably transfected CHO cells using the SyncroPatch384PE system (Nanion Technologies), an automated patch clamp device. Cells were cultured at 37° C./5% CO2 in Ham's F-12 supplemented with 10% fetal bovine serum, 100 U/mL penicillin G sodium, […] streptomycin sulfate and selection antibiotics (0.01 mg/mL Blasticidin, 0.4 mg/mL Zeocin and 0.25 mg/mL Hygromycin). On the day of the recordings, cells in culture dishes were washed twice with Hank's Balanced Salt Solution (HBSS) and treated with Accutase for approximately 20 minutes. Immediately before use in the SynchroPatch384PE using an 8-hole NPC-384 chip, the cells were washed in HBSS to remove the Accutase and re-suspended in extracellular solution. All experiments were performed at ambient temperature. Intracellular solution contained (mM): CsCl, 50; CsF, 90; MgCl2, 5; EGTA, 1; HEPES, 10; pH adjusted to 7.2 with CsOH. Extracellular solution contained (mM): NaCl, 137; KCl, 4.0; CaCl2), 3.8; MgCl2, 1; HEPES, 10; Glucose, 10; pH adjusted to 7.4 with NaOH. 100 nM tetrodotoxin (TTX) was added to the extracellular solution to block endogenous TTX-sensitive sodium currents.
Compounds were tested in quadruplicate in 0.3% DMSO and 0.03% pluronic Acid. Compounds were diluted 1:3.33 in extracellular solution to create an 8-point concentration response curve. Each plate contained a historical positive control and up to ten compounds. 300 μM tetracaine and 0.3% DMSO+0.03% pluronic acid were used as high and low controls respectively.
Whole cell patch clamp recordings were conducted according to Nanion's standard procedure for SyncroPatch384PE®. Cells were held at a holding potential of −120 mV. A depolarization step to 10 mV for 30 ms was applied (P1 measurement), followed by a hyperpolarization step to −100 mV for 100 ms. An inactivation step at −35 mV for 10 sec was applied before stepping to −100 mV for 20 ms, followed by a step to 10 mV for 30 ms (P2 measurement) and then back to −100 mV for 30 ms. Sweep interval was 15 sec. Following establishment of the whole-cell configuration in extracellular solution, cells were washed in extracellular solution containing 0.3% DMSO and 0.03% pluronic acid to stabilize the baseline current. Compounds were then applied by the SynchroPatch384 PE system into each well and the current was recorded for five minutes in extracellular solution, followed by application of tetracaine to achieve full block at the end of experiment. The potency of the compounds was assessed on two read-outs, resting state block (P1 measurement) or inactivated state block (P2 measurement) to obtain IC50 values. Values were normalized to high (tetracaine) and low (DMSO+pluronic acid) controls.
Examples 1 to 219 and Examples 225 to 236 are assayed using SyncroPatch384PE assay described above.
(The patch-clamp technique gives a direct electrical read-out from membranes.)

Where [1] appears, read: inactivated state block (P2 measurement), read-out: P2 IC50.
Where [2] appears, read: resting state block (P1 measurement), read-out: P1 IC50.

The structures appear in SMILES notation. Read-outs that look alike come from different tables or passages of the source. Some results are limits rather than exact numbers.

The record followed here is US20250154109A1, “SODIUM CHANNEL BLOCKING COMPOUNDS, DERIVATIVES THEREOF, AND METHODS OF THEIR USE” (LATIGO BIOTHERAPEUTICS, INC, priority 2022, published 2025).

One may read the IC50 as the concentration needed to halve the response being measured.

human Nav1.8, sequence (Q9Y5Y9 whole entry): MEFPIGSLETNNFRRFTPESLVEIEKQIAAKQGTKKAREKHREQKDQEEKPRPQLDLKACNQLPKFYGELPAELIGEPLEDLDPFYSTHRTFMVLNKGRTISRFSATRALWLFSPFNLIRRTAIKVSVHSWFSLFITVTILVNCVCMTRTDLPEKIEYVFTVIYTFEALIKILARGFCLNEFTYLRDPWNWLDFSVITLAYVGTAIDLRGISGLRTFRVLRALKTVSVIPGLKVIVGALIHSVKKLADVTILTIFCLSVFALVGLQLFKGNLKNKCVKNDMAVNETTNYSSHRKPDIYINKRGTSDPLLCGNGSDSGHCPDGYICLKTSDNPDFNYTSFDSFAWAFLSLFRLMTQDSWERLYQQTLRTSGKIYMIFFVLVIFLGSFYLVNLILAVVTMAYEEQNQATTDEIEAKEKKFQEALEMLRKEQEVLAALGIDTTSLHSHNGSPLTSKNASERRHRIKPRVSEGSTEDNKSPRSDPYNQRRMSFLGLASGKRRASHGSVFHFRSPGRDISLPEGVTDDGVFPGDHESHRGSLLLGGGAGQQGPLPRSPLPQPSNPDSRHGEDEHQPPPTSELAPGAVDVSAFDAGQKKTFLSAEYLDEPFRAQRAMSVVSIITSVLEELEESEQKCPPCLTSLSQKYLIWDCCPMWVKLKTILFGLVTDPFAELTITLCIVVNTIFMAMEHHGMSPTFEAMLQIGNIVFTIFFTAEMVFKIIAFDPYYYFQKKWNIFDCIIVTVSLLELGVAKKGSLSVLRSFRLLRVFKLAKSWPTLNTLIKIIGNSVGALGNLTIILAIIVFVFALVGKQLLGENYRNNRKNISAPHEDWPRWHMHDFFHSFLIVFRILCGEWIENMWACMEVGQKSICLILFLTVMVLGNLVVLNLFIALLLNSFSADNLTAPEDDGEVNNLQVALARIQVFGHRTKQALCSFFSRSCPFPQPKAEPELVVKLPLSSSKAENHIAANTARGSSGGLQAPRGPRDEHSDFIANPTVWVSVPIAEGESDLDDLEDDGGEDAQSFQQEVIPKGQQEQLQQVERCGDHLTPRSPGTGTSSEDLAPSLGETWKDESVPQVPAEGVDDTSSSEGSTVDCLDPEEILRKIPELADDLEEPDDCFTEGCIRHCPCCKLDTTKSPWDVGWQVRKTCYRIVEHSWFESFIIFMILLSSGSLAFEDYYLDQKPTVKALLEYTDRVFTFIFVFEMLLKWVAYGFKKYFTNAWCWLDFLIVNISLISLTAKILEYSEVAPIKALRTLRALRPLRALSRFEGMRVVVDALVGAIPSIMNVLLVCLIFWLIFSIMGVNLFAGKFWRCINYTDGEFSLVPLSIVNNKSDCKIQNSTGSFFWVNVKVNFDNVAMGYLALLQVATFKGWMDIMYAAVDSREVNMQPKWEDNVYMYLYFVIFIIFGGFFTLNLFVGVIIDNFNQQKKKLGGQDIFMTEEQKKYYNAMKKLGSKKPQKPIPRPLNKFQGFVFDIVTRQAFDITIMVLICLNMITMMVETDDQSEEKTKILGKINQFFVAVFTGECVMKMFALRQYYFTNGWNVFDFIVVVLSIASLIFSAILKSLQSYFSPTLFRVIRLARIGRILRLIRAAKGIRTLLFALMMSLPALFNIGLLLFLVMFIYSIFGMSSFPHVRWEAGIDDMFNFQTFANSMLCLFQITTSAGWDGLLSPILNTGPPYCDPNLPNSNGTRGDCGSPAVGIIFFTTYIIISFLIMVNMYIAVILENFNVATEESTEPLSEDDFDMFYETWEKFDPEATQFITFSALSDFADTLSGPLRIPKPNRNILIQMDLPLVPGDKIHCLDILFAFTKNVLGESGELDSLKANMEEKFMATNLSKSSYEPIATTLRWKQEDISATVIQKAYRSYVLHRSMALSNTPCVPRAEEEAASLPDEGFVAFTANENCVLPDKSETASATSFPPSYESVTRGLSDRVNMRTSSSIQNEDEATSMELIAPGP

`Cc1c(-c2ccc(F)c(F)c2)cnc(N2CCCC(F)(F)CC2)c1C(=O)Nc1cccc([S@](C)(=N)=O)c1` [Example 59, (R)-2-(4,4-difluoroazepan-1-yl)-5-(3,4-difluorophenyl)-4-methyl-N-(3-(S-methylsulfonimidoyl)phenyl)nicotinamide]: the IC50 reads like this: under setting [1], at most 5 nM; under setting [2], at most 5 nM.
On to `Cc1c(-c2cnn(C)c2)ccc(N2CCCC(F)(F)CC2)c1C(=O)Nc1cccc([S@](C)(=N)=O)c1` [Example 78, (R)-6-(4,4-difluoroazepan-1-yl)-2-methyl-3-(1-methyl-1H-pyrazol-4-yl)-N-(3-(S-methylsulfonimidoyl)phenyl)benzamide], for which the half-inhibitory concentration (IC50) was over 200 nM under setting [1] and over 200 nM under setting [2].
`Cc1c(C(F)(F)F)cnc(N2CCCC(F)(F)CC2)c1C(=O)Nc1cccc([S@@](C)(=O)=NC(=O)[C@@H](C)O)c1` [Example 193, 2-(4,4-difluoroazepan-1-yl)-N-(3-((R)-N-((R)-2-hydroxypropanoyl)-S-methylsulfonimidoyl)phenyl)-4-methyl-5-(trifluoromethyl)nicotinamide]: the IC50 was at most 5 nM under setting [1] and at most 5 nM under setting [2].
Turning to `CC#Cc1cnc(N2CCCC(F)(F)CC2)c(C(=O)Nc2cccc([S@](C)(=N)=O)c2)c1C` [Example 127, (R)-2-(4,4-difluoroazepan-1-yl)-4-methyl-N-(3-(S-methylsulfonimidoyl)phenyl)-5-(prop-1-yn-1-yl)nicotinamide], the IC50 was at most 5 nM under setting [1] and at most 5 nM under setting [2].
As to `Cc1nc(N2CC(F)(F)C2)nc(N2CCCC(F)(F)CC2)c1C(=O)Nc1cccc([S@](C)(=N)=O)c1` [Example 158, (R)-4-(4,4-difluoroazepan-1-yl)-2-(3,3-difluoroazetidin-1-yl)-6-methyl-N-(3-(S-methylsulfonimidoyl)phenyl)pyrimidine-5-carboxamide], the concentration for half-maximal inhibition (IC50) by setting is: under setting [1], 50 to 100 nM; under setting [2], 50 to 100 nM.
Turning to `Cc1c(C(F)(F)F)nnc(N2CCCC(F)(F)CC2)c1C(=O)Nc1cccc([S@@](C)(=O)=NC(=O)[C@@H](C)O)c1` [Example 179, 3-(4,4-difluoroazepan-1-yl)-N-(3-((R)-N-((R)-2-hydroxypropanoyl)-S-methylsulfonimidoyl)phenyl)-5-methyl-6-(trifluoromethyl)pyridazine-4-carboxamide], the IC50 under setting [1] was at most 5 nM and the IC50 under setting [2] was at most 5 nM.
Regarding `CNCC(=O)N=[S@](C)(=O)c1cccc(NC(=O)c2c(N3CCCC(F)(F)CC3)ccc(-c3cnn(C)c3)c2C)c1` [Example 175, (R)-6-(4,4-difluoroazepan-1-yl)-2-methyl-3-(1-methyl-1H-pyrazol-4-yl)-N-(3-(S-methyl-N-(methylglycyl)sulfonimidoyl)phenyl)benzamide], the IC50 lay within 5 to 50 nM under setting [1] and 5 to 50 nM under setting [2].
Turning to `Cc1nc(N2CCCC(F)(F)CC2)c(C(=O)Nc2cccc([S@](C)(=N)=O)c2)c(C)c1C(F)(F)F` (single isomer, unassigned) [Example 186], the concentration for half-maximal inhibition (IC50) by setting is: under setting [1], at most 5 nM; under setting [2], at most 5 nM.
For the compound `C[S@@](=N)(=O)c1cccc(NC(=O)c2c(N3CCCC(F)(F)CC3)ncc(Cl)c2F)c1` [Example 226, (R)-5-chloro-2-(4,4-difluoroazepan-1-yl)-4-fluoro-N-(3-(S-methylsulfonimidoyl)phenyl)nicotinamide], the IC50 reads like this: under setting [1], at most 5 nM; under setting [2], at most 5 nM.
Consider `Cc1c(-c2nccs2)cnc(N2CCCC(F)(F)CC2)c1C(=O)Nc1cccc(S(C)(=N)=O)c1` (centres unmarked) [Example 98, 2-(4,4-difluoroazepan-1-yl)-4-methyl-N-(3-(S-methylsulfonimidoyl)phenyl)-5-(thiazol-2-yl)nicotinamide], for which the IC50 fell in the range of 5 to 50 nM under setting [1] and 5 to 50 nM under setting [2].
`CNCCN=[S@](C)(=O)c1cccc(NC(=O)c2c(N3CCCC(F)(F)CC3)ncc(-c3cnn(C)c3)c2C)c1` [Example 203, (R)-2-(4,4-difluoroazepan-1-yl)-4-methyl-5-(1-methyl-1H-pyrazol-4-yl)-N-(3-(S-methyl-N-(2-(methylamino)ethyl)sulfonimidoyl)phenyl)nicotinamide]: the half-inhibitory concentration (IC50) under setting [1] is 5 to 50 nM and the half-inhibitory concentration (IC50) under setting [2] was 5 to 50 nM.
In the case of `Cc1c(-c2ccccn2)cnc(N2CCCC(F)(F)CC2)c1C(=O)Nc1cccc(S(C)(=N)=O)c1` (centres unmarked) [Example 99, 6 C(4,4-difluoroazepan-1-yl)-4methyl-N-(3-(S-methylsulfonimidoyl)phenyl)-[2,3bipyridine]-5carboxamide], the IC50 is, setting by setting: under setting [1], 100 to 200 nM; under setting [2], 100 to 200 nM.
For the compound `Cc1nc(C(F)(F)F)nc(N2CCCC(F)(F)CC2)c1C(=O)Nc1cccc([S@](C)(=N)=O)c1` [Example 135, (R)-4-(4,4-difluoroazepan-1-yl)-6-methyl-N-(3-(S-methylsulfonimidoyl)phenyl)-2-(trifluoromethyl)pyrimidine-5-carboxamide], the IC50 reads like this: under setting [1], 5 to 50 nM; under setting [2], 5 to 50 nM.
As to `Cc1c(C(F)(F)F)cnc(N2CCCC(F)(F)CC2)c1C(=O)Nc1cccc([S@@](C)(=O)=NC(=O)[C@H](C)O)c1` [Example 192, 2-(4,4-difluoroazepan-1-yl)-N-(3-((R)-N-((S)-2-hydroxypropanoyl)-S-methylsulfonimidoyl)phenyl)-4-methyl-5-(trifluoromethyl)nicotinamide], the IC50 reads like this: under setting [1], at most 5 nM; under setting [2], at most 5 nM.
Regarding `Cc1c(-c2ccc(C(F)F)cc2)nnc(N2CCCC(F)(F)CC2)c1C(=O)Nc1cccc([S@](C)(=N)=O)c1` [Example 167, (R)-3-(4,4-difluoroazepan-1-yl)-6-(4-(difluoromethyl)phenyl)-5-methyl-N-(3-(S-methylsulfonimidoyl)phenyl)pyridazine-4-carboxamide], the 50% inhibitory concentration (IC50) reads like this: under setting [1], 5 to 50 nM; under setting [2], 5 to 50 nM.
For the compound `C[S@@](=N)(=O)c1cc(NC(=O)c2cc(Cl)c(C(F)(F)F)cc2N2CCO[C@@H](C(F)(F)F)C2)ccn1` [Example 217, 5-chloro-N-(2-((R)—S-methylsulfonimidoyl)pyridin-4-yl)-4-(trifluoromethyl)-2-((R)-2-(trifluoromethyl)morpholino)benzamide], the 50% inhibitory concentration (IC50) lay within 50 to 100 nM under setting [1] and 50 to 100 nM under setting [2].
With `Cc1c(-c2c(F)cccc2F)cnc(N2CCCC(F)(F)CC2)c1C(=O)Nc1cccc(S(C)(=N)=O)c1` (centres unmarked) [Example 104, 2-(4,4-difluoroazepan-1-yl)-5-(2,6-difluorophenyl)-4-methyl-N-(3-(S-methylsulfonimidoyl)phenyl)nicotinamide], the IC50 reads like this: under setting [1], 5 to 50 nM; under setting [2], 5 to 50 nM.
Regarding `Cc1c(C(F)(F)F)nnc(N2CCCC(F)(F)CC2)c1C(=O)NC12CC(C(N)=O)(C1)C2` [Example 128, N-(3-carbamoylbicyclo[1.1.1]pentan-1-yl)-3-(4,4-difluoroazepan-1-yl)-5-methyl-6-(trifluoromethyl)pyridazine-4-carboxamide], the 50% inhibitory concentration (IC50) was over 200 nM under setting [1] and over 200 nM under setting [2].
Regarding `CNCC(=O)N=[S@](C)(=O)c1cccc(NC(=O)c2c(N3CCCC(F)(F)CC3)ncc(-c3ccc(Cl)cc3)c2C)c1` [Example 68, (R)-5-(4-chlorophenyl)-2-(4,4-difluoroazepan-1-yl)-4-methyl-N-(3-(S-methyl-N-(methylglycyl)sulfonimidoyl)phenyl)nicotinamide], the half-maximal inhibitory concentration (IC50) under setting [1] was at most 5 nM and the IC50 under setting [2] was at most 5 nM.
